# From patent publication US10206388B2, “Formulation component” (SYNGENTA LIMITED, priority 2011, dated 2019)
# Tests used:
# Format in all cases: in vivo
# [1] = test system: four weed species (ABUTH, CHEAL, DIGSA, SETVI); assay: Glasshouse weed test, nicosulfuron with adjuvants, mean across species; conditions: mean over two rates
# Method: (§1) The aromatic ester Finsolv® TN (C12-C15 alkyl benzoate) was tested in a glasshouse against four weed species using the herbicide nicosulfuron. An agrochemical composition was prepared containing 0.2% v/v of the adjuvant in a track sprayer, and was applied at a volume of 200 liters per hectare. Nicosulfuron was applied at either 30 or 60 grams of pesticide per hectare on each of the weed species. The weed species and their growth stage at spraying were Abutilon theophrasti (ABUTH; growth stage 13), Chenopodium album (CHEAL; growth stage 14), Digitaria sanguinalis (DIGSA; growth stage 13), and Setaria viridis (SETVI; growth stage 13).
# (§2) Each spray test replicated three times. The efficacy of the herbicide was assessed visually and expressed as a percentage of the leaf area killed. Samples were assessed at time periods of 7, 14 and 20 days following application. The results shown in Table 6 below are mean averages over the two rates of nicosulfuron, three replicates and the three assessment timings, and are compared to the efficacy of nicosulfuron in the absence of an adjuvant, and nicosulfuron in the presence of the commercially available tank-mix adjuvant, Atplus411F®.
# (§3) A second experiment was conducted to assess the efficacy of Finsolv® TN as an adjuvant in compositions of nicosulfuron. This was carried out as outlined above, with the following change: samples were assessed at 14 and 20 days post application.
# (§4) The results shown in Table 7 below are mean averages over the two rates of nicosulfuron, three replicates and the two assessment timings, and are compared to the efficacy of nicosulfuron in the absence of an adjuvant, and nicosulfuron in the presence of the commercially available tank-mix adjuvant, Atplus411F®.
# (§5) The aromatic esters Benzoate 1 (see Example 9), Benzoflex 354 (2,2,4-trimethyl-1,3-pentanediol dibenzoate) and Finsolv® SB (stearyl benzoate) were tested in a glasshouse against four weed species using the herbicide nicosulfuron. Nicosulfuron was applied at either 30 or 60 grams of pesticide per hectare on each of the weed species. The weed species and their growth stage at spraying were Abutilon theophrasti (ABUTH; growth stage 13), Chenopodium album (CHEAL; growth stage 14), Digitaria sanguinalis (DIGSA; growth stage 13), and Setaria viridis (SETVI; growth stage 13).
# as §2, with “of” for “of 7,”, “Table 14” for “Table 6”, “the two” for “the three”
# An agrochemical composition was prepared containing 0.2% v/v of the adjuvant in a track sprayer and was applied at a volume of 200 liters per hectare. The adjuvant oils were emulsified using a small amount of the surfactant Pluronic® PE 10500, which was present in the composition at a concentration of 0.02% v/v. Nicosulfuron was applied at either 30 or 60 grams of pesticide per hectare on each of the weed species. The weed species and their growth stage at spraying were Abutilon theophrasti (ABUTH; growth stage 13), Chenopodium album (CHEAL; growth stage 14-15), Digitaria sanguinalis (DIGSA; growth stage 14), and Setaria viridis (SETVI; growth stage 13-14).
# Each spray test replicated three times. The efficacy of the herbicide was assessed visually and expressed as a percentage of the leaf area killed. Samples were assessed at time periods of 14 and 21 days following application. […]
# [2] = test system: Abutilon theophrasti (ABUTH); assay: Glasshouse weed test, nicosulfuron with adjuvants; conditions: mean over two rates
# Method: as §1, §2, §3, §4, §5
# as §2, with “of” for “of 7,”, “Table 14” for “Table 6”, “the two” for “the three”
# [3] = test system: Digitaria sanguinalis (DIGSA); assay: Glasshouse weed test, nicosulfuron with adjuvants; conditions: mean over two rates
# Method: as §1, §2, §3, §4, §5
# as §2, with “of” for “of 7,”, “Table 14” for “Table 6”, “the two” for “the three”
# [4] = test system: Chenopodium album (CHEAL); assay: Glasshouse weed test, nicosulfuron with adjuvants; conditions: mean over two rates
# Method: as §1, §2, §3, §4, §5
# as §2, with “of” for “of 7,”, “Table 14” for “Table 6”, “the two” for “the three”
# [5] = test system: Setaria viridis (SETVI); assay: Glasshouse weed test, nicosulfuron with adjuvants; conditions: mean over two rates
# Method: as §1, §2, §3, §4, §5
# as §2, with “of” for “of 7,”, “Table 14” for “Table 6”, “the two” for “the three”
# [6] = test system: Tetranychus urticae; assay: Two spotted spider mite mortality on French bean, abamectin with aromatic ester adjuvants; conditions: for % mortality of Tetranychus urticae: adjuvant 0.1% v/v where present, French bean, 10 days, larva and adults averaged
# Method: The efficacy of the benzoic acid esters Finsolv® SB (isostearyl benzoate) and Finsolv® TN (C12-C15 alkyl benzoate) and the aromatic ester ethoxylate Dermol®25-3B (C12-C15 alkyl ethoxy (3) benzoate) as adjuvants in compositions containing abamectin was tested and compared to the efficacy of abamectin compositions which lack this type of adjuvant. The adjuvants were present at 0.1% v/v in the abamectin compositions. The surfactants polyoxyethylene sorbitan monooleate and an ethoxylated castor oil were also present in all the abamectin compositions tested.
# Two week old French bean (Phaseolus vulgaris) plants were infested with a mixed population of two spotted spider mite Tetranychus urticae. One day after infestation the plants were treated with the test compositions, with a track sprayer from the top with a rate of 200 liters per hectare. Plants were incubated in the greenhouse for 10 days and the evaluation was done on mortality against Larva and Adults, just on the lower side (untreated) of the leaves. Each experiment was replicated twice and the results were averaged. The mortality against Larva and Adults was then averaged.
# [7] = Table 6, Example 5: nicosulfuron 30 or 60 g/ha, adjuvant 0.2% v/v, three replicates, 7, 14 and 20 days
# [8] = Table 7, Example 5 second experiment: nicosulfuron 30 or 60 g/ha, adjuvant 0.2% v/v, three replicates, 14 and 20 days
# [9] = Table 14, Example 10: nicosulfuron 30 or 60 g/ha, three replicates, 14 and 20 days
compound,measurement,setting,value
"COc1cc(OC)nc(NC(=O)NS(=O)(=O)c2ncccc2C(=O)N(C)C)n1 [Nicosulfuron, nicosulfuron]","Mean percentage kill, Mean across species",[1]; [7],20.1 B %
same,"Mean percentage kill, Mean across species",[1]; [8],29.1 B %
same,"Mean percentage kill, Mean across species",[1]; [9],59.6 B %
same,"Mean percentage kill, Mean across species","[1]; Table 19, Example 15: nicosulfuron 30 or 60 g/ha, adjuvant 0.2% v/v emulsified with Pluronic PE 10500 0.02% v/v, three replicates, 14 and 21 days",29.8B %
same,"Mean percentage kill, Mean across species","[1]; Table 23, Example 19: absence of an adjuvant, nicosulfuron 30 or 60 g/ha, three replicates, 14 and 21 days",40.1%
same,"Mean percentage kill, Mean across species","[1]; Table 33, Example 33: nicosulfuron 30 or 60 g/ha, three replicates, 14 and 21 days",40.1B %
same,Mean percentage kill ABUTH,[2]; [7],19.4 B %
same,Mean percentage kill ABUTH,[2]; [8],29.2 B %
same,Mean percentage kill ABUTH,[2]; [9],56.7 C %
same,Mean percentage kill DIGSA,[3]; [7],1.1 B %
same,Mean percentage kill DIGSA,[3]; [8],0.0 B %
same,Mean percentage kill DIGSA,[3]; [9],56.3 B %
same,Mean percentage kill CHEAL,[4]; [7],26.7 B %
same,Mean percentage kill CHEAL,[4]; [8],25.8 B %
same,Mean percentage kill CHEAL,[4]; [9],44.6 B %
same,Mean percentage kill SETVI,[5]; [7],33.3 C %
same,Mean percentage kill SETVI,[5]; [8],61.3 C %
same,Mean percentage kill SETVI,[5]; [9],81.0 B %
abamectin,% mortality of Tetranychus urticae,[6]; abamectin 0.2 ppm,0%
same,% mortality of Tetranychus urticae,[6]; abamectin 0.4 ppm,0%
same,% mortality of Tetranychus urticae,[6]; abamectin 0.8 ppm,27%
same,% mortality of Tetranychus urticae,[6]; abamectin 1.5 ppm,70%
same,% mortality of Tetranychus urticae,"[6]; abamectin 3 ppm, lower untreated leaf side",95%
"CC(C)CCCCCCCCCCCCCCCOC(=O)c1ccccc1 [Finsolv® SB, Isostearyl benzoate]",Mortality of Tetranychus urticae,[6]; aromatic ester composition 0.1% v/v without abamectin present,no mortality
